Experimental data: patent US20230089557A1, “METHODS OF TREATING DLBCL USING BTK INHIBITORS AND COMBINATIONS THEREOF” (BEIGENE SWITZERLAND GMBH, priority 2020, published 2023)

System: R/R non-GCB DLBCL
Test: Compound 1 monotherapy in patients with R/R non-GCB DLBCL
Assay type: in vivo, human
Conditions: for unadjusted ORR: non-GCB DLBCL
Protocol: A total of 121 patients with R/R non-GCB DLBCL were recruited in four Compound 1 treatment studies that were conducted at a similar time period. Two of the four studies were Compound 1 monotherapy (n=79) and two were Compound 1 combined with an anti-CD20 antibody therapy (n=42). Similar inclusion and exclusion criteria and response evaluation criteria were used across all studies. Fifty-six non-GCB patients were further subtyped by gene expression profiling (GEP) using the HTG EdgeSeq DLBCL Cell of Origin Assay. The expression of approximately 90 lymphoma-associated genes from the HTG GEP assay were analyzed by R package limma for correlation with response to Compound 1 treatment. Seventy-seven patient samples were tested by next-generation sequencing (NGS) with a panel of genes. Chi-square test was used to evaluate the correlation between mutations and the objective response rate (ORR).
Monotherapy schedule 1: Compound 1 was administered orally every day at 160 mg twice daily (BID) in 28-day cycles in patients with R/R non-GCB DLBCL.
Monotherapy schedule 2: Compound 1 was administered orally every day in each cycle at 160 mg BID in 28-day cycles in patients with R/R non-GCB DLBCL.
79 patients with non-GCB DLBCL were subjected to Compound 1 monotherapies (Monotherapy Schedule 1 or 2).

[1] = monotherapy 160 BID Schedule 1, ABC Subtype of DLBCL Patients
[2] = monotherapy 160 BID Schedule 1, CD79B ITAM_Mut
[3] = monotherapy 160 BID Schedule 1, CD79B ITAM_WT
[4] = monotherapy 160 BID Schedule 1, CD79B_Mut
[5] = monotherapy 160 BID Schedule 1, CD79B_WT
[6] = monotherapy 160 BID Schedule 1, MYD88_L265P
[7] = monotherapy 160 BID Schedule 1, MYD88_WT
[8] = monotherapy 160 BID Schedule 1, NOTCH1_Mut
[9] = monotherapy 160 BID Schedule 1, NOTCH1_WT
[10] = monotherapy 160 BID Schedule 1, Non-GCB DLBCL Patients
[11] = monotherapy 160 BID Schedule 1, Non-GCB DLBCL Patients with Sequence Available
[12] = monotherapy 160 BID Schedule 1, Patients with Sequence Available
[13] = monotherapy 160 BID Schedule 2, ABC Subtype of DLBCL Patients
[14] = monotherapy 160 BID Schedule 2, CD79B ITAM_Mut
[15] = monotherapy 160 BID Schedule 2, CD79B ITAM_WT
[16] = monotherapy 160 BID Schedule 2, CD79B_Mut
[17] = monotherapy 160 BID Schedule 2, CD79B_WT
[18] = monotherapy 160 BID Schedule 2, MYD88_L265P
[19] = monotherapy 160 BID Schedule 2, MYD88_L265P/CD79B_Mut
[20] = monotherapy 160 BID Schedule 2, MYD88_WT
[21] = monotherapy 160 BID Schedule 2, NOTCH1_Mut
[22] = monotherapy 160 BID Schedule 2, NOTCH1_WT
[23] = monotherapy 160 BID Schedule 2, Non-GCB DLBCL Patients
[24] = monotherapy 160 BID Schedule 2, Non-GCB DLBCL Patients with Sequence Available
[25] = monotherapy 160 BID Schedule 2, Other (not MYD88_L265P/CD79B_Mut)
[26] = monotherapy 160 BID Schedule 2, Patients with Sequence Available
[27] = monotherapy Total (N = 79), ABC Subtype of DLBCL Patients
[28] = monotherapy Total (N = 79), CD79B ITAM_Mut
[29] = monotherapy Total (N = 79), CD79B ITAM_WT
[30] = monotherapy Total (N = 79), CD79B_Mut
[31] = monotherapy Total (N = 79), CD79B_WT
[32] = monotherapy Total (N = 79), MYD88_L265P
[33] = monotherapy Total (N = 79), MYD88_L265P/CD79B_Mut
[34] = monotherapy Total (N = 79), MYD88_WT
[35] = monotherapy Total (N = 79), NOTCH1_Mut
[36] = monotherapy Total (N = 79), NOTCH1_WT
[37] = monotherapy Total (N = 79), Non-GCB DLBCL Patients
[38] = monotherapy Total (N = 79), Non-GCB DLBCL Patients with Sequence Available
[39] = monotherapy Total (N = 79), Other (not MYD88_L265P/CD79B_Mut)
[40] = monotherapy Total (N = 79), Patients with Sequence Available

## C=CC(=O)N1CCC([C@@H]2CCNc3c(C(N)=O)c(-c4ccc(Oc5ccccc5)cc4)nn32)CC1 [Compound 1, (S)-7-(1-acryloylpiperidin-4-yl)-2-(4-phenoxyphenyl)-4,5,6,7-tetra-hydropyrazolo[1,5-a]pyrimidine-3-carboxamide]
GEP-confirmed activated B-cell DLBCL, first of the two monotherapies (Schedule 1)
  ORR: 53.8%
GEP-confirmed activated B-cell DLBCL, second of the two monotherapies (Schedule 2)
  ORR: 36%
[1]
  ORR: 53.8
  Response/Patient: 7/13
[2]
  ORR: 100.0
  Response/Patient: 2/2
Monotherapy 160 BID Schedule 1, CD79B ITAM_Mut vs CD79B ITAM_WT
  Difference in ORR (95% CI): 50.0
[3]
  ORR: 50.0
  Response/Patient: 4/8
[4]
  ORR: 75.0
  Response/Patient: 3/4
Monotherapy 160 BID Schedule 1, CD79B_Mut vs CD79B_WT
  Difference in ORR (95% CI): 25.0
[5]
  ORR: 50.0
  Response/Patient: 3/6
[6]
  ORR: 0.0
  Response/Patient: 0/1
Monotherapy 160 BID Schedule 1, MYD88_L265P vs MYD88_WT
  Difference in ORR (95% CI): −66.7
[7]
  ORR: 66.7
  Response/Patient: 6/9
[8]
  ORR: 100.0
  Response/Patient: 1/1
Monotherapy 160 BID Schedule 1, NOTCH1_Mut vs NOTCH1_WT
  Difference in ORR (95% CI): 44.4
[9]
  ORR: 55.6
  Response/Patient: 5/9
[10]
  ORR: 31.6
  Response/Patient: 12/38
[11]
  ORR: 60.0
  Response/Patient: 6/10
Monotherapy 160 BID Schedule 1, Other (not MYD88_L265P/CD79B_Mut)
  ORR: 60.0
[12]
  ORR: 63.6
  Response/Patient: 7/11
[13]
  ORR: 36.0
  Response/Patients: 9/25
[14]
  ORR: 46.2
  Response/Patients: 6/13
Monotherapy 160 BID Schedule 2, CD79B ITAM_Mut vs CD79B ITAM_WT
  Difference in ORR (95% CI): 17.6
[15]
  ORR: 28.6
  Response/Patients: 6/21
[16]
  ORR: 46.2
  Response/Patients: 6/13
Monotherapy 160 BID Schedule 2, CD79B_Mut vs CD79B_WT
  Difference in ORR (95% CI): 17.6
[17]
  ORR: 28.6
  Response/Patients: 6/21
[18]
  ORR: 40.0
  Response/Patients: 4/10
Monotherapy 160 BID Schedule 2, MYD88_L265P vs MYD88_WT
  Difference in ORR (95% CI): 6.7
[19]
  ORR: 50.0
  Response/Patients: 3/6
Monotherapy 160 BID Schedule 2, MYD88_L265P/CD79B_Mut vs Other
  Difference in ORR (95% CI): 17.9
[20]
  ORR: 33.3
  Response/Patients: 8/24
[21]
  ORR: 100.0
  Response/Patients: 2/2
Monotherapy 160 BID Schedule 2, NOTCH1_Mut vs NOTCH1_WT
  Difference in ORR (95% CI): 68.8
[22]
  ORR: 31.3
  Response/Patients: 10/32
[23]
  ORR: 29.3
  Response/Patients: 12/41
[24]
  ORR: 35.3
  Response/Patients: 12/34
[25]
  ORR: 32.1
  Response/Patients: 9/28
[26]
  ORR: 35.3
  Response/Patients: 12/34
[27]
  ORR: 42.1
  Response/Patients: 16/38
[28]
  ORR: 53.3
  Response/Patients: 8/15
Monotherapy Total (N = 79), CD79B ITAM_Mut vs CD79B ITAM_WT
  Difference in ORR (95% CI): 18.9
[29]
  ORR: 34.5
  Response/Patients: 10/29
[30]
  ORR: 52.9
  Response/Patients: 9/17
Monotherapy Total (N = 79), CD79B_Mut vs CD79B_WT
  Difference in ORR (95% CI): 19.6
[31]
  ORR: 33.3
  Response/Patients: 9/27
[32]
  ORR: 36.4
  Response/Patients: 4/11
Monotherapy Total (N = 79), MYD88_L265P vs MYD88_WT
  Difference in ORR (95% CI): −6.1
[33]
  ORR: 50.0
  Response/Patients: 3/6
Monotherapy Total (N = 79), MYD88_L265P/CD79B_Mut vs Other
  Difference in ORR (95% CI): 10.5
[34]
  ORR: 42.4
  Response/Patients: 14/33
[35]
  ORR: 100.0
  Response/Patients: 3/3
Monotherapy Total (N = 79), NOTCH1_Mut vs NOTCH1_WT
  Difference in ORR (95% CI): 63.4
[36]
  ORR: 36.6
  Response/Patients: 15/41
[37]
  ORR: 30.4
  Response/Patients: 24/79
[38]
  ORR: 40.9
  Response/Patients: 18/44
[39]
  ORR: 39.5
  Response/Patients: 15/38
[40]
  ORR: 42.2
  Response/Patients: 19/45
First of the two monotherapies (Schedule 1)
  unadjusted ORR: 31.6%
Second of the two monotherapies (Schedule 2)
  unadjusted ORR: 29.3%
Two monotherapies, NOTCH1 mutant (n=3)
  ORR: 100%
Two monotherapies, non-GCB DLBCL with CD79B mutations (n=17)
  ORR: 52.9%
Two monotherapies, other population (without CD79B mutations)
  ORR: 33.3%
Two monotherapies, patients without NOTCH1 mutation
  ORR: 36.6%
